# Source: patent US8653237B2, “Peptide analogues” (MannKind Corporation, priority 2005, dated 2014)
# Square brackets hold non-standard residues; d marks the D form. Peptide text beside a SMILES is read from it. Cha = N[C@@H](CC1CCCCC1)C(=O)O
# Assays:
# HLA-A*0201 [1] = molecular target: T1, HLA-A*0201 (Homo sapiens, UniProt P04439, D140Y/D185E/D98H/E176V/E277Q/G131W/G231S/I119V/I121R/I166T/I218V/L300P/L318F/N151K/N90K/P208A/P217A/Q86G/Q94H/R138H/R169H/T345S); assay: Peptide binding using T2 cells (affinity to HLA-A*0201); design: endogenous in cells; host or cells: T2 cells; conditions: peptide concentration giving 50% of the saturation signal on T2 cells
# [2] = test system: T cell lines against natural epitope SSX-241-49; assay: Cross-reactivity and functional avidity: IFN-gamma production by T cell lines raised against natural SSX-2 41-49; format: cell-based, HHD transgenic mice; conditions: T cells raised against native SSX-2 41-49 stimulated with analog, native = 1, lower = more active
# HLA-A*0201 [3] = molecular target: T1, HLA-A*0201; assay: iTopia affinity assay (ED50); format: binding
# Description: Avidin-coated microtiter plates containing class I monomer loaded with a so-called placeholder peptide were used to evaluate peptide binding, affinity and off-rate. The monomer-coated plates were supplied as part of the iTopia Epitope Discovery System Kit (Beckman Coulter, Inc., San Diego, Calif., USA). Assay buffers, anti-MHC-FITC mAb and beta2-microglobulin and control peptides were also supplied with the kits.
# Plates were read on the fluorometer. Sigmoidal dose response curves were generated using Prism software.
# [4] = test system: T cell line specific for the native epitope PRAME425-433; assay: Cross-reactivity: IFN-gamma secretion from T cell line specific for native PRAME425-433; format: cell-based, HHD transgenic mice; conditions: analog peptide at approximately 0.304 (so in the source); normalized to native peptide
# Experimental: At 7 days after the last boost, the mice were sacrificed and a suspension of splenocytes prepared at 5×10^6 […] cells/ml in complete HL-1 medium. Cells were incubated with different concentrations of peptide for 48 hours in flat-bottomed 96-well plates (200 μl/well) and for an additional 24 hours with rIL-2 at 10 U/ml added to the wells. The supernatant was harvested and the concentration of IFN-gamma assessed by standard methods such as ELISA.
# The analogs listed in FIGS. 26-28 were tested for various properties such as improved affinity and stability of binding, cross-reactivity with the native epitope, and immunogenicity as follows in Examples 40-48. […] The observed affinities of the analogs are reported as % binding (compared to the positive control) and ED50, and stability of binding as half time of dissociation. Cross reactivity with the native epitope was assessed by using the analog peptides to stimulate IFN-gamma secretion from a T cell line specific for the native epitope, essentially as described in Example 6. The data shown in FIGS. 26-28 were generated by stimulating with analog peptide at approximately 0.304. […] In some cases, the reported values are the average of two determinations.
molecule,measurement,setting,value
"CC[C@H](C)[C@H](NC(=O)[C@H](CCCCN)NC(=O)[C@H](CCC(=O)O)NC(=O)[C@H](CO)NC(=O)[C@H](Cc1cccc2ccccc12)NC(=O)[C@@H](N)CCCCN)C(=O)N[C@@H](Cc1ccccc1)C(=O)N[C@@H](Cc1ccc(O)cc1)C(=O)N[C@H](C(=O)O)C(C)C [SSX2 41-49 (A42(Nal-1)), KNal-1SEKIFYV]",Half-maximal Binding,HLA-A*0201 [1],N/B
CC[C@H](C)[C@H](NC(=O)[C@H](CCCCN)NC(=O)[C@H](CCC(=O)O)NC(=O)[C@H](CO)NC(=O)[C@H](C)NC(=O)[C@@H](N)CC1CCCCC1)C(=O)N[C@@H](Cc1ccccc1)C(=O)N[C@@H](Cc1ccc(O)cc1)C(=O)N[C@H](C(=O)O)C(C)C [SSX2 41-49 (K41(Cha))] (H-[Cha]ASEKIFYV-OH),Half-maximal Binding,HLA-A*0201 [1],N/B
"CC[C@H](C)[C@H](NC(=O)[C@H](CCCCN)NC(=O)[C@H](CCC(=O)O)NC(=O)[C@H](CO)NC(=O)[C@@H](NC(=O)[C@@H](N)Cc1ccccc1)C(C)C)C(=O)N[C@@H](Cc1ccccc1)C(=O)N[C@@H](Cc1ccc(O)cc1)C(=O)N(C)[C@H](C(=O)O)C(C)C [SSX2 41-49 (K41F, A42V, V49MeVal)]",Cross-reactivity and fct avidity (native to analogs),[2],10
"Lys P1 analog: PRAME425-433 analog with Lys substituted for the Ser at the P1 position (KLLQHLIGL; UniProt P78395 425-433, looked up, variant S425K)",Binding affinity (ED50) relative to native peptide (in words),HLA-A*0201 [3],reduced by almost 6-fold
same,"IFN-γ elicited, relative to native peptide",[4],40%
